# Measurements from US10640748B2, “Oligodendroglial cell culturing methods and in methods for treating neurodegenerative disorders by using thyroid hormones or analogues” (NeuOrphan Pty Ltd, priority 2014, dated 2020).
# Test system: hESC-derived OPCs
# Test: Stage VI terminal differentiation of hESC-derived OPCs
# Format: cell-based, human
# Method: Stage VI; for terminal differentiation, these cells were plated onto poly-L-ornithine (10 μg/mL, Sigma-Aldrich) and mouse laminin (10 μg/mL, Life technologies) coated plates in N2/B27 medium supplemented with T3 (50 ng/mL, Sigma-Aldrich) for 21 days to induce pre-OLs.
smiles,measurement,value
"N[C@@H](Cc1cc(I)c(Oc2ccc(O)c(I)c2)c(I)c1)C(=O)O [T3, Triiodothyronine]",terminal differentiation of OPCs into O4+ pre-OLs and MBP+ pre-myelinating OLs,promoted terminal differentiation
